The numbers were not newly measured in US7332183B2, “Multilayer dosage forms containing NSAIDs and triptans” (Pozen Inc., priority 2002, dated 2008), which cites them from elsewhere.

The conditions of the data set: in vivo.
In the case of `CCc1cccc2c3c([nH]c12)C(CC)(CC(=O)O)OCC3` (stereo not shown) [etodolac], the half life result is “about 7 hours”.

As to `CC(C(=O)O)c1ccc(-c2ccccc2)c(F)c1` (stereo not shown) [flurbiprofen], the half life result was “about 6 hours”.

In the case of `Cc1cccc(Nc2ccccc2C(=O)O)c1C` [mefanamic acid], the half life entry was “about 4 hours”.

Take `CS(=O)(=O)c1ccc(C2=C(c3ccccc3)C(=O)OC2)cc1` [rofecoxib]: the half life result is “about 17 hours”.
